# Results reported in patent US20220378794A1 (Sinopia Biosciences, Inc., priority 2019, published 2022).
# Test system: chronic low-dose MPTP lesioned non-human primate model of cognitive impairment
# Conditions: levodopa 5-20 mg/kg (groups 6-8); in particular shorter delay periods DP1 and DP2; vs vehicle
smiles,measurement,value
N[C@@H](Cc1ccc(O)c(O)c1)C(=O)O [levodopa],accuracy of VDR test,trend toward completing the VDR test with lower accuracy
